# Experimental data taken from the Kinase Knowledgebase extract (Sharma et al. 2016).
# Molecular target: PIK3CD (Human) (UniProt O00329)
# Assay: Enzyme Assay
# Chain of PIK3CD (Human) (O00329 whole entry, looked up): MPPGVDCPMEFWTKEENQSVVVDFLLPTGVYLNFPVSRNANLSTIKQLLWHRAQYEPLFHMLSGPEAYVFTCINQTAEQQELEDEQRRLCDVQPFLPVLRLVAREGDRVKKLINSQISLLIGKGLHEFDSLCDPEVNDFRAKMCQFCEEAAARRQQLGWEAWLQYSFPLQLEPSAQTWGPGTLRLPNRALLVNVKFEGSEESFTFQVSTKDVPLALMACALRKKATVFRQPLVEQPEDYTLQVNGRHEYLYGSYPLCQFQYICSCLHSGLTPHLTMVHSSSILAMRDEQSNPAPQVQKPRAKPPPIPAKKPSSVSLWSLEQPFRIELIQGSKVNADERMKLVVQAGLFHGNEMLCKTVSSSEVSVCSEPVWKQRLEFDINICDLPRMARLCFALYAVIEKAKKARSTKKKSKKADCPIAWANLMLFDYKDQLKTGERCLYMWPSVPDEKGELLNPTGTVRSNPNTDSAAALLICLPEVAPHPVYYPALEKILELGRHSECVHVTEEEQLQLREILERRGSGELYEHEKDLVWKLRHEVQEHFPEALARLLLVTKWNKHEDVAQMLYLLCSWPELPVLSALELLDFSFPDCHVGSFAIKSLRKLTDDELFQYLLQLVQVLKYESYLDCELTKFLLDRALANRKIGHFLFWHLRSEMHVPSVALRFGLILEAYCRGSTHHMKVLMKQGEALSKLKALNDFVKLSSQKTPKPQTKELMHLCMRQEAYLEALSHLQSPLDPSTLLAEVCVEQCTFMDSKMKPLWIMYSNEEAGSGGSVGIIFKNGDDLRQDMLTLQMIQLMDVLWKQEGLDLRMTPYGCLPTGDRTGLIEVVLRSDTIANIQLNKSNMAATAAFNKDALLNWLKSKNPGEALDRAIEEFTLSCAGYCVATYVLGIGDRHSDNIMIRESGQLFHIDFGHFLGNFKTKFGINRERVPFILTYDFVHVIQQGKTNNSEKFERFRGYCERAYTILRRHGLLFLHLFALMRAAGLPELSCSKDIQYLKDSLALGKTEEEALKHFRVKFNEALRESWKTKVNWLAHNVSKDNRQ
row,Structure (SMILES),IC50 [µM]
1,Cc1ccccc1Oc1cccc2c(=O)cc(N3CCOCC3)[nH]c12,0.63
2,C[C@@H]1COCCN1c1cc(=O)n2c(n1)N(Cc1cncc(Cl)c1)[C@H](C(F)(F)F)CC2,> 10
3,CC(C)(C)NS(=O)(=O)c1cncc(-c2cc(F)c3nc(N)nn3c2)c1,8.2
4,CN(CCO)S(=O)(=O)c1cncc(-c2ccc3nc(NC(=O)NCCc4noc(C(C)(C)C)n4)sc3c2)c1,0.166
5,Nc1ncc(-c2ccnc(Nc3ccncc3)n2)c(CC2CC2)n1,1.2
6,O=C1NC(=O)/C(=C/c2ccc(-c3ccc(F)cc3O)o2)S1,> 20
7,C[C@H](Nc1ncnc2nc[nH]c12)c1nc2ccc(F)cc2c(=O)n1-c1ccccc1,0.012
8,Fc1ccc2[nH]ccc2c1-c1nc(N2CCOCC2)c2sc(CN3CCN(CC4CC4)CC3)cc2n1,0.005

# Molecular target: PIK3CB (Human) (UniProt P42338)
# Sequence (P42338 whole entry, looked up): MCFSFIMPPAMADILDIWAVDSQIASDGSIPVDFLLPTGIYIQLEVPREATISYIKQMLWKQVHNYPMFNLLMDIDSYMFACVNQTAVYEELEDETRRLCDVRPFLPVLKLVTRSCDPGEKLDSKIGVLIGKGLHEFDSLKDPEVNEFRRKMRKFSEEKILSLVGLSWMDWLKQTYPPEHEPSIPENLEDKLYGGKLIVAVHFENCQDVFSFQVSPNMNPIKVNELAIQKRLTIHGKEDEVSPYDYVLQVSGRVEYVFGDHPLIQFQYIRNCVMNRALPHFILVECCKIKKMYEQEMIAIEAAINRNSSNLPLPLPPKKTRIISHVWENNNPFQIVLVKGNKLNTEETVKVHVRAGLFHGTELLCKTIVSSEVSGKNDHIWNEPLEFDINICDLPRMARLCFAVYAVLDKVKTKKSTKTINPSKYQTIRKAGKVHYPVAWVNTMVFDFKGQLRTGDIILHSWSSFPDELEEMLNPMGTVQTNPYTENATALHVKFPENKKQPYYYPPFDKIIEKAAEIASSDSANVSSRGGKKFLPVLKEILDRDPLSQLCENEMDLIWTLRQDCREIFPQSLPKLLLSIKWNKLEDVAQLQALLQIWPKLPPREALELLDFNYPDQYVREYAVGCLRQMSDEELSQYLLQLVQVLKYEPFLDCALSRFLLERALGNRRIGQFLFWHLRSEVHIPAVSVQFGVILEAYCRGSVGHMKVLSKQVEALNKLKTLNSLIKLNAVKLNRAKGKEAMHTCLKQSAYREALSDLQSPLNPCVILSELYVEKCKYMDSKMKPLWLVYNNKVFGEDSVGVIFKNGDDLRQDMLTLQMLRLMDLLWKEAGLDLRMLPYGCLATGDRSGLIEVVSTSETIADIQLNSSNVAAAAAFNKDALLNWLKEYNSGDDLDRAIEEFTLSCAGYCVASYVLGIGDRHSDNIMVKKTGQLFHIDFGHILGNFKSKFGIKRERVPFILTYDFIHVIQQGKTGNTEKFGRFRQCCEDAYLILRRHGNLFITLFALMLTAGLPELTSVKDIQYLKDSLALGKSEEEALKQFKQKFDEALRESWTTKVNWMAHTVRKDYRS
# Assay: Enzyme Assay
row,Structure (SMILES),IC50 [µM]
1,Cc1ccccc1Oc1cccc2c(=O)cc(N3CCOCC3)[nH]c12,0.13
2,C[C@@H]1COCCN1c1cc(=O)n2c(n1)N(Cc1cncc(Cl)c1)[C@H](C(F)(F)F)CC2,> 10
3,CC(C)(C)NS(=O)(=O)c1cncc(-c2cc(F)c3nc(N)nn3c2)c1,1.1
4,CN(CCO)S(=O)(=O)c1cncc(-c2ccc3nc(NC(=O)NCCc4noc(C(C)(C)C)n4)sc3c2)c1,0.062
5,O=C1NC(=O)/C(=C/c2ccc(-c3ccc(F)cc3O)o2)S1,> 20
6,Fc1ccc2[nH]ccc2c1-c1nc(N2CCOCC2)c2sc(CN3CCN(CC4CC4)CC3)cc2n1,2.65

# Molecular target: PIK3CG (human) (UniProt P48736)
# Sequence (P48736 whole entry, looked up): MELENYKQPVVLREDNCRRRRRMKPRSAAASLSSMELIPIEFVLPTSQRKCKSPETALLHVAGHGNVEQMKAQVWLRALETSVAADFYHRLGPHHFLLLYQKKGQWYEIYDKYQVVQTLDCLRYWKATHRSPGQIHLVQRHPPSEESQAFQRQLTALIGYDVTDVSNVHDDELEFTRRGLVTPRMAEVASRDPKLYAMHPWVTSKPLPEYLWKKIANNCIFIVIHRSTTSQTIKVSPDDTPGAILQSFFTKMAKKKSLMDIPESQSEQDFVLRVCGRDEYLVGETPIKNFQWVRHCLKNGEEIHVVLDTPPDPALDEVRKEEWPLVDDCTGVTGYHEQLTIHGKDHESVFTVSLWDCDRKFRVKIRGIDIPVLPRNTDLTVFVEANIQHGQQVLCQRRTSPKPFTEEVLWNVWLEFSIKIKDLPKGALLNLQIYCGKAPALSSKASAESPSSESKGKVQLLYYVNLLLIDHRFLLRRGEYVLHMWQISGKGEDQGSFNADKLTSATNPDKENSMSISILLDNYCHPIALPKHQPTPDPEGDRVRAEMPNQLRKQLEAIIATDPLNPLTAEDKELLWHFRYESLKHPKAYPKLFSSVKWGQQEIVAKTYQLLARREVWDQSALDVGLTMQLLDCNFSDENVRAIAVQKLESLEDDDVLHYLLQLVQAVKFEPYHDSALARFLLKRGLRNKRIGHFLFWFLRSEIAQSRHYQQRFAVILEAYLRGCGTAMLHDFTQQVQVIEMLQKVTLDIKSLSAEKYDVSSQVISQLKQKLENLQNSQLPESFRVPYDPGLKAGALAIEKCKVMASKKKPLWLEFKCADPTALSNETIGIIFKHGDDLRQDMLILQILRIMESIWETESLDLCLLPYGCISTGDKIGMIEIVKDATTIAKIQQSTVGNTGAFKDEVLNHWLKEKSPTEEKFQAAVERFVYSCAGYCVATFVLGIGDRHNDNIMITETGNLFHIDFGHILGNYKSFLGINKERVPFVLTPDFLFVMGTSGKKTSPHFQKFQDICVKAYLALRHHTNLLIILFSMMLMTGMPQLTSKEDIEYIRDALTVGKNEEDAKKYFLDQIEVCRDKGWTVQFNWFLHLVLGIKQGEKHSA
# Assay: Enzyme Assay
row,Structure (SMILES),IC50 [µM]
1,Cc1ccccc1Oc1cccc2c(=O)cc(N3CCOCC3)[nH]c12,> 100
2,C[C@@H]1COCCN1c1cc(=O)n2c(n1)N(Cc1cncc(Cl)c1)[C@H](C(F)(F)F)CC2,> 10
3,CC(C)(C)NS(=O)(=O)c1cncc(-c2cc(F)c3nc(N)nn3c2)c1,0.027
4,CN(CCO)S(=O)(=O)c1cncc(-c2ccc3nc(NC(=O)NCCc4noc(C(C)(C)C)n4)sc3c2)c1,0.003
5,Nc1ncc(-c2ccnc(Nc3ccncc3)n2)c(CC2CC2)n1,3.04
6,C[C@H](Nc1ncnc2nc[nH]c12)c1nc2ccc(F)cc2c(=O)n1-c1ccccc1,1.39
7,Fc1ccc2[nH]ccc2c1-c1nc(N2CCOCC2)c2sc(CN3CCN(CC4CC4)CC3)cc2n1,> 1000
8,CC(C)(O)CNc1ncc(-c2ccnc(Nc3ccnc(Cl)c3)n2)c(CC2CC2)n1,2

# Molecular target: PIK3CA (human) (UniProt P42336)
# Sequence (P42336 whole entry, looked up): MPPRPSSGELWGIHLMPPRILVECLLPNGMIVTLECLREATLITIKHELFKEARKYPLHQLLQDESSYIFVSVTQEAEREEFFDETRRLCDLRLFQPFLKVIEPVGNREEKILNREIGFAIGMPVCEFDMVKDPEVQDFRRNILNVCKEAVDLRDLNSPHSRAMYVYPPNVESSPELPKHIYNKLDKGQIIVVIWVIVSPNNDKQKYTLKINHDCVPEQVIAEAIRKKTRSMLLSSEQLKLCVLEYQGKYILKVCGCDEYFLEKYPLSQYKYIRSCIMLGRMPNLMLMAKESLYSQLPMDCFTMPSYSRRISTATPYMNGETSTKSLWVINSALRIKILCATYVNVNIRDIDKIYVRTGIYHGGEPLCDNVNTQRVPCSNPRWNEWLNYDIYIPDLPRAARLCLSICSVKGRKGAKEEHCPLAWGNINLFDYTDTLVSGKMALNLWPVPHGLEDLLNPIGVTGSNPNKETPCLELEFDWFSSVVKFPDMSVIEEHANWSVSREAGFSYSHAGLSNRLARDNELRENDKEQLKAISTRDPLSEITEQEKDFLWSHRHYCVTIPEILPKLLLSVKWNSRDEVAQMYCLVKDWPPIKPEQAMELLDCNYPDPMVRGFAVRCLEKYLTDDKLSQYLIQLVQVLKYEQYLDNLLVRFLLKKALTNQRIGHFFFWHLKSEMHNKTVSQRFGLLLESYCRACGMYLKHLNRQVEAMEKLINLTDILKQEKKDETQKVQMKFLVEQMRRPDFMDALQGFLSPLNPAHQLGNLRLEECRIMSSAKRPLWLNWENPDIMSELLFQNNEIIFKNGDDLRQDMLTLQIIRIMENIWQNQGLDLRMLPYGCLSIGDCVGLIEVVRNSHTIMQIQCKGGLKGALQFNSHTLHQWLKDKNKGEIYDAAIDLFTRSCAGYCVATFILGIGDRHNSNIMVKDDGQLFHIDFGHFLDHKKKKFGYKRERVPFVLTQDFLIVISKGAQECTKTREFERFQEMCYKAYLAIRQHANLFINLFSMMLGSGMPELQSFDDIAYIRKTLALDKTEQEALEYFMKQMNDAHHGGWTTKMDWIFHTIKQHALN
# Assay: Enzyme Assay
row,Structure (SMILES),IC50 [µM]
1,Cc1ccccc1Oc1cccc2c(=O)cc(N3CCOCC3)[nH]c12,61
2,CC(C)(C)NS(=O)(=O)c1cncc(-c2cc(F)c3nc(N)nn3c2)c1,> 10
3,CN(CCO)S(=O)(=O)c1cncc(-c2ccc3nc(NC(=O)NCCc4noc(C(C)(C)C)n4)sc3c2)c1,1.68
4,Nc1ncc(-c2ccnc(Nc3ccncc3)n2)c(CC2CC2)n1,3.96
5,O=C1NC(=O)/C(=C/c2ccc(-c3ccc(F)cc3O)o2)S1,1.07
6,C[C@H](Nc1ncnc2nc[nH]c12)c1nc2ccc(F)cc2c(=O)n1-c1ccccc1,5.44
7,Fc1ccc2[nH]ccc2c1-c1nc(N2CCOCC2)c2sc(CN3CCN(CC4CC4)CC3)cc2n1,0.91
